Measurements from ChEMBL document CHEMBL1201862, “PubChem BioAssay data set” (2004).
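Dose response: 5 concentrations. Exposure: 48 h. Format: 96-well plates. Endpoint: linear interpolation; highest concentration if not reached. GI50 is the concentration that inhibits growth by half.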 Calls of active or inactive are those of the source. Rule as the data show it: active = GI50 up to about 1.1 µM and inactive = higher.

Legend:
Experiment in all cases: NCI-60 cell line screen, 48 h
UO-31 = test system: UO-31
OVCAR-8 = test system: OVCAR-8
LOX IMVI = test system: LOX IMVI
NCI-H522 = test system: NCI-H522
A549 = test system: A549
HCT-15 = test system: HCT-15
LXFL 529 = test system: LXFL 529
KM12 = test system: KM12
SK-OV-3 = test system: SK-OV-3
SNB-75 = test system: SNB-75
HCT-116 = test system: HCT-116
K562 = test system: K562
Malme-3M = test system: Malme-3M
MOLT-4 = test system: MOLT-4
XF498 = test system: XF498
TK-10 = test system: TK-10
DLD-1 = test system: DLD-1
HCC 2998 = test system: HCC 2998
SF-268 = test system: SF-268
SN12C = test system: SN12C
NCI-H226 = test system: NCI-H226
SK-MEL-5 = test system: SK-MEL-5
M14 = test system: M14
M19-MEL = test system: M19-MEL
OVCAR-4 = test system: OVCAR-4
HL-60 = test system: HL-60
DMS-114 = test system: DMS-114
U-251 = test system: U-251
UACC-257 = test system: UACC-257
SNB-19 = test system: SNB-19
IGROV-1 = test system: IGROV-1
SF-539 = test system: SF-539
DMS-273 = test system: DMS-273
UACC-62 = test system: UACC-62
HT-29 = test system: HT-29
SK-MEL-28 = test system: SK-MEL-28
ACHN = test system: ACHN
786-0 = test system: 786-0
CCRF-CEM = test system: CCRF-CEM
NCI-H460 = test system: NCI-H460
SK-MEL-2 = test system: SK-MEL-2
NCI-H23 = test system: NCI-H23
RXF 393 = test system: RXF 393
OVCAR-3 = test system: OVCAR-3
A498 = test system: A498
SNB-78 = test system: SNB-78
MCF7 = test system: MCF7
HOP-92 = test system: HOP-92
HOP-18 = test system: HOP-18
NCI/ADR-RES = test system: NCI/ADR-RES
SW-620 = test system: SW-620
CAKI-1 = test system: CAKI-1
COLO 205 = test system: COLO 205
EKVX = test system: EKVX
KM-20L2 = test system: KM-20L2
OVCAR-5 = test system: OVCAR-5
HOP-62 = test system: HOP-62
RPMI-8226 = test system: RPMI-8226
SF-295 = test system: SF-295
SR = test system: SR

Measured: GI50

COc1ccc(NC(=O)C(C)Oc2ccc(OCC3CCCCC3)cc2)cc1 (stereo unspecified)
63 µM: HCT-15
inactive: UO-31 51.4 µM | OVCAR-8 > 100 µM | LOX IMVI 30.7 µM | NCI-H522 25.6 µM | A549 54.1 µM | LXFL 529 51.4 µM | KM12 > 100 µM | SK-OV-3 > 100 µM | SNB-75 54 µM | HCT-116 > 100 µM | K562 57.9 µM | Malme-3M 34.2 µM | MOLT-4 54.5 µM | XF498 85.7 µM | TK-10 > 100 µM | DLD-1 64 µM | HCC 2998 23.6 µM | SF-268 > 100 µM | SN12C > 100 µM | NCI-H226 > 100 µM | SK-MEL-5 34.1 µM | M14 70.3 µM | M19-MEL > 100 µM | OVCAR-4 94 µM | HL-60 42.2 µM | DMS-114 46.7 µM | U-251 > 100 µM | UACC-257 36.6 µM | SNB-19 > 100 µM | IGROV-1 > 100 µM | SF-539 > 100 µM | DMS-273 42.3 µM | UACC-62 > 100 µM | HT-29 > 100 µM | SK-MEL-28 > 100 µM | ACHN 44.5 µM | 786-0 > 100 µM | CCRF-CEM 71.1 µM | NCI-H460 45.8 µM | SK-MEL-2 81.1 µM | NCI-H23 34.5 µM | RXF 393 > 100 µM | OVCAR-3 62.5 µM | A498 > 100 µM | SNB-78 50.9 µM

Cc1[nH]c(=O)[nH]c(=O)c1/C=C/C(=O)NC(CO)C[S+]([O-])Cc1ccccc1 (stereo unspecified)
inactive: UO-31 > 300 µM | OVCAR-8 > 300 µM | LOX IMVI > 300 µM | MCF7 > 300 µM | HOP-92 > 190 µM | NCI-H522 > 300 µM | HOP-18 > 289 µM | NCI/ADR-RES > 300 µM | A549 > 300 µM | KM12 299 µM | SK-OV-3 > 300 µM | SNB-75 296 µM | HCT-116 > 300 µM | K562 > 300 µM | SW-620 > 300 µM | Malme-3M > 300 µM | MOLT-4 > 300 µM | XF498 > 300 µM | CAKI-1 > 300 µM | DLD-1 > 300 µM | HCC 2998 > 300 µM | SF-268 > 300 µM | SN12C > 300 µM | NCI-H226 > 300 µM | COLO 205 > 300 µM | SK-MEL-5 > 300 µM | EKVX > 300 µM | M19-MEL > 300 µM | HL-60 > 300 µM | DMS-114 > 300 µM | U-251 > 300 µM | UACC-257 > 300 µM | SNB-19 > 300 µM | IGROV-1 > 300 µM | KM-20L2 > 300 µM | SF-539 > 300 µM | OVCAR-5 > 300 µM | DMS-273 > 300 µM | UACC-62 > 300 µM | HT-29 > 300 µM | SK-MEL-28 > 300 µM | CCRF-CEM > 300 µM | HOP-62 > 300 µM | NCI-H460 > 300 µM | SK-MEL-2 > 277 µM | RPMI-8226 > 300 µM | NCI-H23 > 300 µM | RXF 393 > 300 µM | SF-295 > 300 µM | OVCAR-3 > 300 µM | A498 > 300 µM | SNB-78 > 300 µM
> 300 µM: HCT-15

CN(C)c1ccc(O[Si](Oc2ccc(N(C)C)cc2)(Oc2ccc(N(C)C)cc2)Oc2ccc(N(C)C)cc2)cc1
inactive: UO-31 > 100 µM | OVCAR-8 52.8 µM | LOX IMVI 79.1 µM | HOP-92 > 100 µM | NCI-H522 25.7 µM | HOP-18 > 100 µM | A549 > 100 µM | SR > 100 µM | LXFL 529 50.9 µM | KM12 71.6 µM | SK-OV-3 > 100 µM | SNB-75 > 100 µM | HCT-116 > 100 µM | K562 > 100 µM | SW-620 > 100 µM | Malme-3M > 100 µM | MOLT-4 98.2 µM | XF498 44.4 µM | TK-10 > 100 µM | CAKI-1 > 100 µM | DLD-1 > 100 µM | HCC 2998 79.6 µM | SF-268 > 100 µM | SN12C 96.8 µM | NCI-H226 > 100 µM | COLO 205 52.7 µM | SK-MEL-5 > 100 µM | EKVX > 100 µM | M14 > 100 µM | M19-MEL > 100 µM | OVCAR-4 > 100 µM | HL-60 32.9 µM | DMS-114 46.5 µM | U-251 89.3 µM | UACC-257 85.1 µM | SNB-19 > 100 µM | IGROV-1 > 100 µM | KM-20L2 > 100 µM | SF-539 > 100 µM | OVCAR-5 > 100 µM | UACC-62 > 100 µM | HT-29 > 100 µM | SK-MEL-28 > 100 µM | ACHN > 100 µM | 786-0 > 100 µM | CCRF-CEM 40.8 µM | HOP-62 > 100 µM | RPMI-8226 > 100 µM | NCI-H23 99.5 µM | SF-295 86.3 µM | OVCAR-3 51.6 µM | A498 > 100 µM
